Measured values published in patent US9289471B2, “Product and process for liquefaction of mucus or sputum” (National Jewish Health, priority 2002, dated 2016).

Key:
[1] = Glycoprotein content of sputum aqueous and gel phases by PAS staining; set-up: species or system human; conditions: 10 or 30 μM Trx with reducing system, 20 min (FIG. 5)
Method: Extraction of soluble glycoproteins from sputum was performed according to methodology outlined by Davies et al. (Davies and Carlstedt, Methods Mol Biol 125:3-13, 2000). 275 μl of CF sputum was treated for 20 minutes at 37° C. with 25 μl of H2O alone or H2O containing Trx (10 or 30 μM)+NADPH (2 mM) and TR (0.1 μM). After treatment, 100 μl of H2O containing 1 mM disopropylflurophosphate and 10 μg ml aprotinin, was added to each sample, followed by 15 minute centrifugation at 22,000 g at 4° C. The resulting supernatant (aqueous phase) of each sample was transferred to a new microcentrifuge tube and stored at −20° C. […]
The glycoprotein content of aqueous and gel phase samples were evaluated by staining with periodic acid Schiff reagent (PAS) according to methodology outlined by Thornton et al. (Thornton et al., Methods Mol Biol 125:77-85, 2000). […]
Disulfide bonds on mucin glycoprotein polymers are potential targets for reduction by Trx. […] After treatment, the resulting soluble and insoluble phases of each sample were separated and analyzed for glycoprotein content by periodic acid/Schiff reagent (PAS) staining Specifically, fractions were loaded and electrophoresed in a 1% agarose (w/v) gel, transferred to PVDF membrane, and stained with periodic acid/Schiff reagent as described in materials and methods. […]

DNA in CF sputum = assay: Total DNA content of sputum gel and liquid phases by Hoechst assay; set-up: species or system human; conditions: Trx (30 μM) + reducing system, 20 min, mean ± S.D., n=5 (FIG. 6)
Method: 275 μl of CF sputum was incubated with no treatment, 25 μl of H2O, or 25 μl of H2O containing Trx (30 μM)+TR (0.1 μM) and NADPH (2 mM). After 20 minute incubation at 37° C., 100 μl of H2O was added to each sample, followed by centrifugation (22,000×g) for 10 minutes. Resulting gel and liquid phases were separated and incubated with an equal volume of digestion solution consisting of 100 mM Tris Cl, 5 mM EDTA, 200 mM NaCl, 0.5% Tween 20, and 1 mg/ml proteinase K for 4 hours at 50° C. DNA was purified from liquid and gel phases by phenol/chloroform extraction and resuspended in 100 μl of TE buffer, pH 8.0. DNA concentrations were determined by Hoechst assay (Labarca and Paigen, Anal Biochem 102:344-352, 1980) using an F-2000 fluorometer (Hitachi, Schaumburg, Ill.) with an excitation wavelength of […] and an emission wavelength of 555 nm. Salmon testis DNA, dissolved in TE buffer, was used to establish the standard curve.
The presence of high amounts of extracellular DNA in CF airway secretions contributes to the excessive viscoelasticity of CF sputum. To evaluate what effect Trx has on the solubility of DNA in sputum, sputum samples (275 μl) were incubated with either no additions, diluent (H2O), or Trx (30 μM)+reducing system for 20 minutes, and then separated into gel (insoluble) and liquid (soluble) phases. […]

Trx: Lyophilized recombinant E. coli Trx from Promega; protein disulfide reductase, used with its reducing system (TR + NADPH)
amount of PAS-reactive glycoproteins in soluble and gel phases versus diluent [1]: greater amounts of PAS-reactive glycoproteins
electrophoretic mobility of glycoforms versus diluent-treated samples [1]: greater electrophoretic mobility
DNA content of gel (insoluble) phase (DNA in CF sputum): 0.55 ± 0.31 mg
DNA content of liquid (soluble) phase (DNA in CF sputum): 0.57 ± 0.37 mg
